According to US12102706B2, “Peptide composition and respective uses” (Universidade do Minho, priority 2013, dated 2024):
Several values for one entry are separate records, joined by “and”; a condition that tells them apart may be missing. Identical values can stand only once.

Key:
[1] = Mechanical tests (Young modulus, maximum load, stretching) of relaxed (reduced) human hair after peptide treatment (Example 3)
Method: The formulation was tested in different hair types: • virgin hair washed, with the cuticle intact and absence of chemical damages; • hair after reduction treatment, at 37° C. in phosphate buffer at pH=8, with 3M GndHCl and 0.05M DTT for 2 hours.
For the treatment with the peptide SEQ ID NO: 412, concentrations of 0.01% (w/w) were used.

keratin = assay: Binding of Alexa Fluor 647-marked keratin to peptides attached to glass, microarray scanner intensity (Example 4); parameters: species or system human; settings: peptide 15 fmol/mm2 on glass; keratin 1 μg/mL, 2 hours at 37° C.; three replicas
Method: In order to assess the interactions between the keratin and some peptides, a keratin solution was prepared. This procedure was performed by immersing African hair, acquired from the International Hair Importers and Products, Inc. (New York), in a solution containing 8 M urea, 0.2 M sodium dodecyl sulfate and 0.5 M sodium bisulfate. The mixture was heated to 50° C. for 24 h in a shaker bath. The solution was dialyzed for several days against double-distilled water. The keratin solution was then concentrated using AMICON with a 3 kDa cut-off.
The reaction was incubated for 1 h30 min at room temperature and in the dark.
The keratin was then diluted to 1 μg/mL in blocking buffer (3% BSA in tris-buffered saline (TBS) with 0.05% Tween 20).
After incubation, the glasses were rinsed in successive washing solutions: TBS+0.1% Tween 20 and blocking buffer with 3% BSA in TBS+0.1% Tween 20, for 3 minutes in each solution.
The imaging of the glasses was performed in Agilent G2565CA Microarray Scanner System. Three replicas of the each peptide incubation were performed and analyzed.

[2] = Mechanical test (Young modulus) of bleached human hair treated with serum or mask, with and without peptide (Example 1); settings: formulations containing the peptide vs without peptide
Method: The tests were performed with in human hair after 8 treatments of bleaching, at 50° C. in 0.1 M Na2CO3/NaHCO3 buffer, at pH=9, 10% H2O2, for 1 hour.
Each of the formulations was tested with and without the peptide sequence ID NO:5, which contains in the sequence 15% of cysteine.
The hair mask was applied to the hair after 8 bleaching treatments, being left to act for 15 minutes, mimicking the procedure indicated in commercial masks. Posteriorly, the hair was washed. The serum was applied to the hair after 8 bleaching treatments, being left to act for 1 hour at 37° C. Posteriorly, the hair was not washed, as in typical commercial procedures the serum should be applied in dry hair. The hair was also tested after 5 applications.
After the treatment, mechanical tests were performed, using a cell with 2.5 N maximum load and a deformation rate of 1.5 mm/min. Each hair was individually mounted in the tensile jig by means of a paper template with a fixed gauge length of 20 mm.

[3] = Mechanical resistance test (Young modulus) of bleached human hair after direct application of peptide (Example 2); settings: peptide treatment after bleaching
Method: The hair was supplied from International Hair Importers and Products, Inc. (New York). Hair fibers were pre-treated by bleaching. The formulation was tested in different hair types: • virgin hair washed, with the cuticle intact and absence of chemical damages; • hair after 8 bleaching treatments, at 50° C. in 0.1 M Na2CO3/NaHCO3 buffer, at pH=9, 10% H2O2, for 1 hour.
The incorporation of the peptides was performed by direct application in the hair surface. The mechanical resistance tests were performed after the treatment of the hair with the peptide.
The measurements of mechanical resistance were performed using a cell with 2.5 N maximum load and a deformation rate of 1.5 mm/min. Each hair was individually mounted in the tensile jig by means of a paper template with a fixed gauge length of 20 mm.

| Sequence | Intensity level (average ± standard deviation), normalized (keratin) | other results |
| --- | --- | --- |
| CGPSPPCITT (listed as Homo sapiens) [SEQ.ID NO:412] | – | hair stretching (average) ([1]; relaxed hair after peptide treatment): 72%; maximum load test, maximum of resistance ([1]; relaxed hair fiber after peptide treatment): 126 MPa; Young modulus (average) ([1]; relaxed hair fiber after peptide treatment at 0.01%): 4190 MPa |
| CEPAICEPSC (listed as Homo sapiens) [SEQ.ID NO:432] | 1 and 1.000 ± 0.000 | – |
| ASCVSLLCRP (listed as Homo sapiens) [SEQ.ID NO:179] | 0.990±0.014 | – |
| CISSSCCPSCC (listed as Homo sapiens) [SEQ.ID NO:1108] | 1 and 1.000 ± 0.000 | – |
| SCCAPVYCCK (listed as Homo sapiens) [SEQ.ID NO:951] | 1 and 1.000 ± 0.000 | – |
| GVCGPSPPCI (listed as Homo sapiens) [SEQ.ID NO:5] | – | mechanical resistance of the damaged hair [2]: increase in mechanical resistance |
| CQCSCCKPYCS (listed as Homo sapiens) [SEQ.ID NO:1131] | 1 and 1.000 ± 0.000 | – |
| CLPCLPAASC (listed as Homo sapiens) [SEQ.ID NO:75] | 1 and 1.000 ± 0.000 | – |
| GGVCGPSPPC (listed as Homo sapiens) [SEQ.ID NO:409] | – | Young modulus [3]: 5649±1022 MPa |
